According to US8329645B2, “Polymyxin derivatives and uses thereof” (priority 2008, dated 2012):

How the values were obtained:
[1] = tested on: E. coli CCUG41421; test: E-test MIC with or without NAB7061 (4 μg/ml), Mueller-Hinton agar; assay type: cell-based, Escherichia coli
How it was run: (§1)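 MICs were read from antibiotic gradient strips applied according to the manufacturer's instructions.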

[2] = tested on: E. coli CCUG41422; test: as above; assay type: cell-based, Escherichia coli
How it was run: as §1

[3] = tested on: E. coli CCUG41424; test: as above; assay type: cell-based, Escherichia coli
How it was run: as §1

[4] = tested on: E. coli CCUG41425; test: as above; assay type: cell-based, Escherichia coli
How it was run: as §1

[5] = tested on: E. coli CCUG41427; test: as above; assay type: cell-based, Escherichia coli
How it was run: as §1

[6] = tested on: E. coli CCUG41429; test: as above; assay type: cell-based, Escherichia coli
How it was run: as §1

[7] = tested on: E. coli CCUG41432; test: as above; assay type: cell-based, Escherichia coli
How it was run: as §1

[8] = tested on: E. coli IH3080; test: as above; assay type: cell-based, Escherichia coli
How it was run: as §1

[9] = tested on: E. coli NCTC13351; test: as above; assay type: cell-based, Escherichia coli
How it was run: as §1

[10] = tested on: E. coli NCTC13353; test: as above; assay type: cell-based, Escherichia coli
How it was run: as §1

[11] = tested on: E. coli ATCC25922; settings: E. coli ATCC25922
How it was run: as §1

[12] = tested on: K. pneumoniae ATCC13883; settings: K. pneumoniae ATCC13883
How it was run: as §1

[13] = tested on: K. pneumoniae CCUG45421; test: E-test MIC with or without NAB7061 (4 μg/ml), Mueller-Hinton agar; assay type: cell-based, Klebsiella pneumoniae
Description: (§2) MICs were determined by using E-strips (Biodisk Ltd., Solna, Sweden) according to the manufacturer's instructions.
(§3) The strains originated from ATCC (11 strains), CCUG (11 strains), and NCTC (The National Collection of Type Cultures, Colindale, U.K.; 2 strains). Eight strains (the F-strains) were purchased from Mobidiag Ltd., Helsinki, Finland.

[14] = tested on: K. pneumoniae F136; test: as above; assay type: cell-based, Klebsiella pneumoniae
Description: as §2, §3

[15] = tested on: K. pneumoniae F144; test: as above; assay type: cell-based, Klebsiella pneumoniae
Description: as §2, §3

[16] = tested on: K. pneumoniae F145; test: as above; assay type: cell-based, Klebsiella pneumoniae
Description: as §2, §3

[17] = tested on: K. oxytoca ATCC13182; test: as above; assay type: cell-based, Klebsiella oxytoca
Description: as §2, §3

[18] = tested on: K. oxytoca CCUG51683; test: as above; assay type: cell-based, Klebsiella oxytoca
Description: as §2, §3

[19] = tested on: E. cloacae ATCC23355; test: as above; assay type: cell-based, Enterobacter cloacae
How it was run: as §1

[20] = tested on: E. cloacae CCUG52947; test: as above; assay type: cell-based, Enterobacter cloacae
How it was run: as §1

[21] = tested on: E. cloacae F230; test: as above; assay type: cell-based, Enterobacter cloacae
How it was run: as §1

[22] = tested on: E. cloacae F232; test: as above; assay type: cell-based, Enterobacter cloacae
How it was run: as §1

[23] = tested on: C. freundii ATCC8090; test: as above; assay type: cell-based, Citrobacter freundii
Description: as §2, §3

[24] = tested on: Ac. baumannii ATCC19606; test: as above; assay type: cell-based, Acinetobacter baumannii; settings: Ac. baumannii ATCC19606
Description: as §2, §3

[25] = tested on: Ac. baumannii F263; test: as above; assay type: cell-based, Acinetobacter baumannii; settings: Ac. baumannii F263
Description: as §2, §3

[26] = tested on: Ac. baumannii F264; test: as above; assay type: cell-based, Acinetobacter baumannii; settings: Ac. baumannii F264
Description: as §2, §3

[27] = tested on: P. vulgaris ATCC13315; test: as above; assay type: cell-based
Description: as §2, §3

[28] = tested on: S. maltophilia ATCC17444; test: as above; assay type: cell-based
Description: as §2, §3

[29] = tested on: S. marcescens ATCC8100; test: as above; assay type: cell-based, Serratia marcescens
Description: as §2, §3

[30] = tested on: P. mirabilis ATCC29906; test: as above; assay type: cell-based, Proteus mirabilis
Description: as §2, §3

[31] = tested on: P. aeruginosa ATCC27853; test: as above; assay type: cell-based, Pseudomonas aeruginosa
Description: as §2, §3

[32] = tested on: P. aeruginosa CCUG51971; test: as above; assay type: cell-based, Pseudomonas aeruginosa
Description: as §2, §3

[33] = tested on: three strains of A. baumannii; test: E-test sensitization by NAB7061, summary over strains; assay type: cell-based; settings: Acinetobacter baumannii, read-out: resulting MIC values in the presence of NAB7061 (4 μg/ml)
Description: as §3

[34] = tested on: A. baumannii ATCC19606; test: E-test MIC of antibiotics on Mueller Hinton agar containing increasing concentrations of NAB739; assay type: cell-based, Acinetobacter baumannii
[35] = tested on: A. baumannii F264; test: as above; assay type: cell-based, Acinetobacter baumannii
[36] = tested on: P. aeruginosa ATCC 27853; test: as above; assay type: cell-based, Pseudomonas aeruginosa

MIC of antibiotic in the presence of 4 μg/ml of NAB 7061 [1]: 0.125 µg/mL | MIC of antibiotic in the presence of 4 μg/ml of NAB 7061 [2]: 0.25 µg/mL | MIC of antibiotic in the presence of 4 μg/ml of NAB 7061 [3]: 0.125 µg/mL | MIC of antibiotic in the presence of 4 μg/ml of NAB 7061 [4]: 0.047 µg/mL | MIC of antibiotic in the presence of 4 μg/ml of NAB 7061 [5]: 0.064 µg/mL | MIC of antibiotic in the presence of 4 μg/ml of NAB 7061 [6]: 0.064 µg/mL | MIC of antibiotic in the presence of 4 μg/ml of NAB 7061 [7]: 0.064 µg/mL | MIC of antibiotic in the presence of 4 μg/ml of NAB 7061 [8]: 0.047 to 0.064 µg/mL | MIC of antibiotic in the presence of 4 μg/ml of NAB 7061 [9]: 0.032 µg/mL | MIC of antibiotic in the presence of 4 μg/ml of NAB 7061 [10]: 1 µg/mL | MIC of antibiotic in the presence of 4 μg/ml of NAB 7061 [11]: 0.094 to 0.125 µg/mL | MIC of antibiotic in the presence of 4 μg/ml of NAB 7061 [12]: 0.19 µg/mL | MIC of antibiotic in the presence of 4 μg/ml of NAB 7061 [13]: 24 µg/mL | MIC of antibiotic in the presence of 4 μg/ml of NAB 7061 [14]: 2 µg/mL | MIC of antibiotic in the presence of 4 μg/ml of NAB 7061 [15]: 0.75 µg/mL | MIC of antibiotic in the presence of 4 μg/ml of NAB 7061 [16]: 0.25 µg/mL | MIC of antibiotic in the presence of 4 μg/ml of NAB 7061 [17]: 0.25 µg/mL | MIC of antibiotic in the presence of 4 μg/ml of NAB 7061 [18]: 0.19 µg/mL | MIC of antibiotic in the presence of 4 μg/ml of NAB 7061 [19]: 0.25 to 0.75 µg/mL | MIC of antibiotic in the presence of 4 μg/ml of NAB 7061 [20]: 0.38 µg/mL | MIC of antibiotic in the presence of 4 μg/ml of NAB 7061 [21]: 0.047 µg/mL | MIC of antibiotic in the presence of 4 μg/ml of NAB 7061 [22]: 0.094 µg/mL | MIC of antibiotic in the presence of 4 μg/ml of NAB 7061 [23]: 0.125 µg/mL | MIC of antibiotic in the presence of 4 μg/ml of NAB 7061 [24]: 0.5 µg/mL | MIC of antibiotic in the presence of 4 μg/ml of NAB 7061 [25]: 0.38 µg/mL | MIC of antibiotic in the presence of 4 μg/ml of NAB 7061 [26]: 0.25 µg/mL | MIC of antibiotic in the presence of 4 μg/ml of NAB 7061 [27]: 24 µg/mL | MIC of antibiotic in the presence of 4 μg/ml of NAB 7061 [28]: 64 µg/mL | MIC of antibiotic in the presence of 4 μg/ml of NAB 7061 [29]: 96 µg/mL | MIC of antibiotic in the presence of 4 μg/ml of NAB 7061 [30]: 24 µg/mL | MIC of antibiotic in the presence of 4 μg/ml of NAB 7061 [31]: 32 µg/mL | MIC of antibiotic in the presence of 4 μg/ml of NAB 7061 [32]: 64 µg/mL | MIC of antibiotic in the presence of NAB739 ([34]; NAB 739 0 μg/ml): 8 µg/mL | MIC of antibiotic in the presence of NAB739 ([34]; NAB 739 0.5 μg/ml): 0.5 µg/mL | MIC of antibiotic in the presence of NAB739 ([34]; NAB 739 1 μg/ml): 0.094 µg/mL | MIC of antibiotic in the presence of NAB739 ([35]; NAB 739 0 μg/ml): 6 µg/mL | MIC of antibiotic in the presence of NAB739 ([35]; NAB 739 0.5 μg/ml): 0.5 µg/mL | MIC of antibiotic in the presence of NAB739 ([35]; NAB 739 1 μg/ml): 0.125 µg/mL | MIC of antibiotic in the presence of NAB739 ([36]; NAB 739 0 μg/ml): 48 µg/mL | MIC of antibiotic in the presence of NAB739 ([36]; NAB 739 0.5 μg/ml): 16 µg/mL | MIC of antibiotic in the presence of NAB739 ([36]; NAB 739 1 μg/ml): 12 µg/mL | MIC of antibiotic in the presence of NAB739 ([36]; NAB 739 2 μg/ml): 3 µg/mL | MIC of antibiotic in the presence of NAB739 ([36]; NAB 739 […]): 32 µg/mL
Compound: CC[C@H]1OC(=O)[C@H](C)[C@@H](O[C@H]2C[C@@](C)(OC)[C@@H](O)[C@H](C)O2)[C@H](C)[C@@H](O[C@@H]2O[C@H](C)C[C@H](N(C)C)[C@H]2O)[C@](C)(OC)C[C@@H](C)C(=O)[C@H](C)[C@@H](O)[C@]1(C)O [Clarithromycin]
MIC [33]: ≤ 0.5 µg/mL
